Laboratory results reported in ChEMBL document CHEMBL2396564, “Synthesis and biological evaluation of a targeted DNA-binding transcriptional activator with HDAC8 inhibitory activity” (Bioorg Med Chem, 2013).
Active and inactive are the calls of the source. The calls are words filed in the database; no cut-off is given here.

Legend:
[1] = target: T1, Histone deacetylase 8 (Mus musculus) (UniProt Q8VH37); test: Inhibition of HDAC8 in C57BL/6 mouse embryonic fibroblasts assessed as induction of histone H3 hyperacetylation in promoter region of Lhx1 at 100 nM after 24 hrs by ChIP analysis
T1 sequence (whole entry): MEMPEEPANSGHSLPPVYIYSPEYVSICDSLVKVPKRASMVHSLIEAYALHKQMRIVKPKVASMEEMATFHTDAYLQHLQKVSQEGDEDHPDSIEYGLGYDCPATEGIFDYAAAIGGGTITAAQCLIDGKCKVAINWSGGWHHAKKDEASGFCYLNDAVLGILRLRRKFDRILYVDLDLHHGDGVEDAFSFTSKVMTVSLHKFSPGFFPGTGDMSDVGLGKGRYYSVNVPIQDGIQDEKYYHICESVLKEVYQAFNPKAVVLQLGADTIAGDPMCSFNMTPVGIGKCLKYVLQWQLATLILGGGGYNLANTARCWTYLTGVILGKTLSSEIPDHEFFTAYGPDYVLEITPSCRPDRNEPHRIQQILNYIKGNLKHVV

[2] = target: T1, Histone deacetylase 8 (Mus musculus); test: Inhibition of HDAC8 in C57BL/6 mouse embryonic fibroblasts assessed as induction of histone H3 hyperacetylation in promoter region of Otx2 at 100 nM after 24 hrs by ChIP analysis
[3] = target: T1, Histone deacetylase 8 (Mus musculus); test: Inhibition of HDAC8 in C57BL/6 mouse embryonic fibroblasts assessed as upregulation of Lhx1 expression at 100 nM after 24 hrs by qPCR analysis relative to control
[4] = target: T1, Histone deacetylase 8 (Mus musculus); test: Inhibition of HDAC8 in C57BL/6 mouse embryonic fibroblasts assessed as upregulation of Otx2 expression at 100 nM after 24 hrs by qPCR analysis relative to control
[5] = target: T1, Histone deacetylase 8 (Mus musculus); test: Inhibition of HDAC8 in C57BL/6 mouse embryonic fibroblasts assessed as induction of histone H3 hyperacetylation in promoter region of Rex1 at 100 nM after 24 hrs by ChIP analysis
[6] = target: T1, Histone deacetylase 8 (Mus musculus); test: Inhibition of HDAC8 in C57BL/6 mouse embryonic fibroblasts assessed as induction of histone H3 hyperacetylation in promoter region of Cdh1 at 100 nM after 24 hrs by ChIP analysis
[7] = target: T1, Histone deacetylase 8 (Mus musculus); test: Inhibition of HDAC8 in C57BL/6 mouse embryonic fibroblasts assessed as induction of histone H3 hyperacetylation in promoter region of Nanog at 100 nM after 24 hrs by ChIP analysis
[8] = target: T1, Histone deacetylase 8 (Mus musculus); test: Inhibition of HDAC8 in C57BL/6 mouse embryonic fibroblasts assessed as induction of histone H3 hyperacetylation in promoter region of Oct3/4 at 100 nM after 24 hrs by ChIP analysis
MEF [9] = test: Upregulation of Klf4 expression in C57BL/6 mouse embryonic fibroblasts at 100 nM after 24 hrs by qPCR analysis; assay type: functional, cell-based
MEF [10] = test: Cytotoxicity against C57BL/6 mouse embryonic fibroblasts assessed as cell viability at 10 uM after 24 hrs by WST-8 assay; assay type: cell-based
MEF [11] = test: Upregulation of c-Myc expression in C57BL/6 mouse embryonic fibroblasts at 100 nM after 24 hrs by qPCR analysis; assay type: functional, cell-based
[12] = target: T1, Histone deacetylase 8 (Mus musculus); test: Inhibition of HDAC8 in C57BL/6 mouse embryonic fibroblasts assessed as upregulation of Dppa4 expression at 100 nM after 24 hrs by qPCR analysis relative to control
[13] = target: T1, Histone deacetylase 8 (Mus musculus); test: Inhibition of HDAC8 in C57BL/6 mouse embryonic fibroblasts assessed as upregulation of Cdh1 expression at 100 nM after 24 hrs by qPCR analysis relative to control
[14] = target: T1, Histone deacetylase 8 (Mus musculus); test: Inhibition of HDAC8 in C57BL/6 mouse embryonic fibroblasts assessed as upregulation of Rex1 expression at 100 nM after 24 hrs by qPCR analysis relative to control
[15] = target: T1, Histone deacetylase 8 (Mus musculus); test: Inhibition of HDAC8 in C57BL/6 mouse embryonic fibroblasts assessed as upregulation of Sox2 expression at 100 nM after 24 hrs by qPCR analysis relative to control
[16] = target: T1, Histone deacetylase 8 (Mus musculus); test: Inhibition of HDAC8 in C57BL/6 mouse embryonic fibroblasts assessed as upregulation of Nanog expression at 100 nM after 24 hrs by qPCR analysis relative to control
[17] = target: T1, Histone deacetylase 8 (Mus musculus); test: Inhibition of HDAC8 in C57BL/6 mouse embryonic fibroblasts assessed as upregulation of Oct3/4 expression at 100 nM after 24 hrs by qPCR analysis relative to control
[18] = target: T2, Histone deacetylase 8 (Homo sapiens) (UniProt Q9BY41); test: Ratio of trichostatin A IC50 to compound IC50 for HDAC8 (unknown origin)
T2 sequence (whole entry): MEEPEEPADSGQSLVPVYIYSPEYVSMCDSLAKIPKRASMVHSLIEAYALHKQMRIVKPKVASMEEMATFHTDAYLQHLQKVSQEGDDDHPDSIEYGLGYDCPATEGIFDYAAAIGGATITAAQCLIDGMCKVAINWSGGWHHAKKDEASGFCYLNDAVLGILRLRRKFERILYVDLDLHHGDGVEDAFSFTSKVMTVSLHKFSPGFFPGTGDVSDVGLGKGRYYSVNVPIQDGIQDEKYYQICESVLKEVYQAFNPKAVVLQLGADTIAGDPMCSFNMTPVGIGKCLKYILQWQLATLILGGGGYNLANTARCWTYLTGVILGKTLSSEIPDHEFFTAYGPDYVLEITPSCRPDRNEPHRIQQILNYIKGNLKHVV

Histone deacetylase 8 = target: T3, Histone deacetylase 8 (Homo sapiens, UniProt Q9BY41); test: Inhibition of HDAC8 (unknown origin) after 30 mins by fluorometric analysis
T3 sequence (Q9BY41 whole entry): T2 sequence (whole entry)

Histone deacetylase 1 = Histone deacetylase 1 (Homo sapiens, UniProt Q13547); test: Inhibition of HDAC1 (unknown origin) after 30 mins by fluorometric analysis
Histone deacetylase 2 = Histone deacetylase 2 (Homo sapiens, UniProt Q92769); test: Inhibition of HDAC2 (unknown origin) after 30 mins by fluorometric analysis
Histone deacetylase 2, sequence (Q92769 whole entry): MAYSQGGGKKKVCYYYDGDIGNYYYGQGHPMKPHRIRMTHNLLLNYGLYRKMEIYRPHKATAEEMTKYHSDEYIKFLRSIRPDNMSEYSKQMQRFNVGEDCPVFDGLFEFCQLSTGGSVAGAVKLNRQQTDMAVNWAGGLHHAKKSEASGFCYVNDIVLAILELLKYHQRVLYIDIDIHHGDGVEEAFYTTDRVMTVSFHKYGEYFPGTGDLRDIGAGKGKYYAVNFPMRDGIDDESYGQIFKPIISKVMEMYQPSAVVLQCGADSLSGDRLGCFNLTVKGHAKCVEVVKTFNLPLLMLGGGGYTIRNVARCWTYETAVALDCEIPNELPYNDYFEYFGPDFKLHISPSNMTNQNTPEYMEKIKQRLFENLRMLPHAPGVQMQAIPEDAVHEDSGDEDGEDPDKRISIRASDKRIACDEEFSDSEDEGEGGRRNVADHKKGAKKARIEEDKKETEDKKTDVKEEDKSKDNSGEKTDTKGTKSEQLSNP

Histone deacetylase 1, sequence (Q13547 whole entry): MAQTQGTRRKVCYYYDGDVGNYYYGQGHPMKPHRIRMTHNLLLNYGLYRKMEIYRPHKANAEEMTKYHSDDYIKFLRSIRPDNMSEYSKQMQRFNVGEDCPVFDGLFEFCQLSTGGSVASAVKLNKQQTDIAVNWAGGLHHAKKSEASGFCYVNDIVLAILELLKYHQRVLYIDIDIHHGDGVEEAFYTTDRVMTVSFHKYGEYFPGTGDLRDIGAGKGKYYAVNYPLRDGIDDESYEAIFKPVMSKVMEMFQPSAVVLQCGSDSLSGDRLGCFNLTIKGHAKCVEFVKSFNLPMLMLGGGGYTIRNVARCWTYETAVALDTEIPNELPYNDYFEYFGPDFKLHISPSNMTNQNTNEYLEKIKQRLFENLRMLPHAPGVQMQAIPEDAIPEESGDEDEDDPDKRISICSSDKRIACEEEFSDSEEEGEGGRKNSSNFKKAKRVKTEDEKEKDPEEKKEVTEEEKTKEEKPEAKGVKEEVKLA

| inhibition [1] | inhibition [2] | fold change (FC) [4] | inhibition [5] | inhibition [6] | inhibition [7] | inhibition [8] | fold change (FC) [12] | fold change (FC) [13] | fold change (FC) [14] | fold change (FC) [15] | fold change (FC) [16] | fold change (FC) [17] | IC50 (Histone deacetylase 8) [nM] | IC50 (Histone deacetylase 1) [nM] | IC50 (Histone deacetylase 2) [nM] | Compound | Activity (MEF [9]) | Activity (MEF [10]) | Activity (MEF [11]) | other results |
| --- | --- | --- | --- | --- | --- | --- | --- | --- | --- | --- | --- | --- | --- | --- | --- | --- | --- | --- | --- | --- |
| Active | Active | 74 | Active | Active | Active | Active | 2 | 25 | 60 | 6 | 16 | 20 | 130 | 490 | 1120 | CN(C)CCCNC(=O)c1cc(NC(=O)c2cc(NC(=O)c3cc(NC(=O)c4nc(NC(=O)CCCNC(=O)c5cc(NC(=O)c6cc(NC(=O)c7cc(NC(=O)c8nc(NC(=O)CCNC(=O)CCNC(=O)CCCCCCC(=O)NO)cn8C)cn7C)cn6C)cn5C)cn4C)cn3C)cn2C)cn1C | inactive | Non-toxic | inactive | fold change (FC) [3]: 2.6; Ratio IC50 [18]: 10 |
| inactive | Active | 40 | Active | Active | Active | Active | 2 | 25 | 60 | 6 | 20 | 20 | 820 | 370 | 770 | CN(C)CCCNC(=O)c1cc(NC(=O)c2cc(NC(=O)c3cc(NC(=O)c4nc(NC(=O)CCCNC(=O)c5cc(NC(=O)c6cc(NC(=O)c7cc(NC(=O)c8nc(NC(=O)CCNC(=O)CCNC(=O)c9ccc(NC(=O)CCCCCCC(=O)NO)cc9)cn8C)cn7C)cn6C)cn5C)cn4C)cn3C)cn2C)cn1C | inactive | Non-toxic | inactive | inhibition [3]: inactive |
